This passage reports RP-LC retention time results from the METLIN SMRT retention time set (Domingo-Almenara et al. 2019).

The nature of the series: gradient 5% acetonitrile 3 min, to 50% in 2 min, to 85% in 15 min, held 3 min, 100 µL/min. To be noted: column: Zorbax Extend-C18 2.1 x 50 mm; eluents: water / acetonitrile, 0.1% formic acid. The method, boiled down:
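Retention times of pure standards were taken from adduct peaks that were selected by computer and manually inspected. Over 3 months, mixtures of ~100 molecules were run by HPLC–quadrupole time-of-flight mass spectrometry in positive and negative ionization mode. The Zorbax Extend-C18 column (2.1 × 50 mm, 1.8 μm) ran at 100 μL/min in water and acetonitrile, each containing 0.1% formic acid, with 40 μL dead volume and 900 μL dwell volume.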
Consider `O=C(CCCS(=O)(=O)Cc1ccccc1)NCc1ccccc1`, for which the RP-LC retention time is 694 s. `Cc1ccccc1CNC(=O)CN1C(=O)CCCc2cc(S(=O)(=O)N3CCC(C)CC3)ccc21` gave an RP-LC retention time of 975 s. Turning to `CC(C)n1cnc(S(=O)(=O)N2CCCC(C(=O)Nc3ccccc3F)C2)c1` (centres undefined), the RP-LC retention time is 772 s. With `Cc1nccn1-c1cc(N2CCCCC2)nc2ccnn12`, the RP-LC retention time was 594 s. Then `COc1ccccc1-c1noc(C2CCCN2C(=O)Nc2ccc(F)cc2F)n1` (centres undefined), with 840 s.

`CCOc1ccccc1C1NC(=O)N(CC(=O)NC2CCCC2)C2=C1C(=O)OC2` (centres undefined): the RP-LC retention time turned out to be 737 s. `Cc1ccc(C(=O)N2CCC3(CC2)N=C(c2ccc(Cl)cc2)NO3)cc1` returned an RP-LC retention time of 895 s. With `CC(C)CCNC(=O)C1CCCN(c2nc3ccsc3c(=O)n2Cc2ccc(F)cc2)C1` (centres undefined) the figure was 954 s. The compound `O=C(NCc1cccc2ccccc12)NCC1CCN(C(=O)COc2ccccc2)CC1` yielded an RP-LC retention time of 770 s. In turn, `Cc1ncsc1CN1CCCC(c2nc(-c3cnccn3)no2)CCNC(=O)CC1` (centres undefined) displayed an RP-LC retention time of 577 s.

Consider `Cc1ccc(NC(=O)c2c(C)oc3nc(C)nc(N4CCCC4)c23)cc1`, for which the RP-LC retention time stood at 774 s. Regarding `CCCN1C(=O)COc2ccc(-c3csc(NC(=O)c4ccc(OC)c(OC)c4)n3)cc21`, the RP-LC retention time came to 971 s. With `O=C(c1sc2ccccc2c1Cl)N1CCN(c2ccccn2)CC1` the figure was 678 s. With `Cc1cnc(C2CC2)n1C1CCN(S(=O)(=O)c2ccc(C#N)cc2)CC1` the figure was 660 s.

For the compound `CCOC(=O)c1c(C)oc2nc(C)nc(NCCCN(CC)c3cccc(C)c3)c12`, the RP-LC retention time came out at 812 s. Then `COc1ccc(NC(=O)N(C)CCc2noc(COc3ccccc3F)n2)cc1`, with 845 s. For `Cc1nc2cc(N3CCC(C(=O)NCc4cccs4)CC3)cnc2nc1C`, the RP-LC retention time came to 670 s.

`N#Cc1cccc(-c2cn3c(n2)N(C(=O)c2ccco2)CCC3)c1` displayed an RP-LC retention time of 645 s. As to `Cc1cc(NC(=O)CSc2nnc(Cc3ccccc3)o2)no1`, the RP-LC retention time was 716 s.

`CCN1CCN(CCNC(=O)c2cc3n(n2)CCCN(Cc2ccc(F)cc2)C3=O)CC1` came in with an RP-LC retention time of 593 s. As for `CCCc1noc(-c2ccc3nnc(CC(=O)NC4CCCC4)n3c2)n1`, the RP-LC retention time was 922 s. Then `COc1ccc(C2(C(=O)N3CCCCCCN(C)C(=O)[C@@H]4CCC[C@@H]43)CC2)cc1`, with 922 s. Turning to `CCCNC(=O)C1Cc2cc(S(=O)(=O)N3CCCCC3)ccc2N1C(=O)CC` (centres undefined), the RP-LC retention time worked out at 800 s. Then `O=C(NC1CCCCC1)C1CCCN(c2nc3ccsc3c(=O)n2Cc2ccc(F)cc2)C1` (centres undefined), with 972 s; and `CC1(C(=O)NCc2ccccc2)CCN(S(=O)(=O)c2ccccc2C(F)(F)F)CC1`, with 970 s; and `O=C(O)CNC(=O)C1CCCN(S(=O)(=O)c2ccc(F)cc2)C1` (centres undefined), with 634 s. As for `CCN1C(=O)c2c(C(=O)NCCc3ccc(C)cc3)ncn2CC1(C)C(=O)NC1CCCC1` (centres undefined), the RP-LC retention time worked out at 779 s. With `O=C(CCc1nnc(C(=O)Nc2ccccc2)s1)NCCc1c[nH]c2ccccc12` the figure was 843 s; with `CCc1cnc2c(c1SCC(=O)N1CCCC1)c(=O)n(C)c(=O)n2C`, 732 s.

`CCc1nc(-c2csc(S(=O)(=O)N3CCCC(C(=O)Nc4cc(C)on4)C3)c2)no1` (centres undefined) had an RP-LC retention time of 896 s. With `CCCS(=O)(=O)c1ccc(NC2CCN(Cc3ccccc3)CC2)nn1` the figure was 602 s; with `Cc1ccc(-c2noc(C3CC(=O)N(c4ccc5c(c4)OCO5)C3)n2)cc1` (centres undefined), 955 s; with `CCN1C(=O)c2cccnc2Sc2cc(C(=O)NCC(C)C)ccc21`, 748 s. `CCCn1c(C)cnc1C1CN(S(=O)(=O)c2ccc(Cl)c(C)c2)C1`: the RP-LC retention time stood at 732 s.

`CC(C)NC(=O)Nc1cccnc1N1CCOCC1` registered an RP-LC retention time of 863 s.

The compound `Cc1cccc(NC(=O)C2CCCN2S(=O)(=O)c2cc3c(cc2C)NC(=O)C(C)O3)c1` (centres undefined) yielded an RP-LC retention time of 813 s. In the case of `CC1=C(c2ccccc2)S(=O)(=O)N=C1N1CCCN(C(=O)Nc2ccccc2F)CC1`, the RP-LC retention time amounted to 811 s. In the case of `Cn1cccc1C(=O)C(=O)Nc1ccc(C#N)cc1`, the RP-LC retention time was determined as 872 s. With `Cc1nn(Cc2nc(-c3ccc(NC(=O)c4cccs4)cc3)oc2C)c(C)c1C` the figure was 922 s. Then `Cc1nnc(NC(=O)CN2CCN(c3ccccc3F)C2=O)s1`, with 626 s.

`COc1cc2c(cc1OC)[C@@H](C(=O)Nc1ccc(F)cc1)[C@@H]1CCCCN1C2=O`: the RP-LC retention time is 773 s. Turning to `O=C(Nc1cnc(-c2cccc(Cl)c2)nc1)c1ccccc1`, the RP-LC retention time turned out to be 1070 s.

On to `Cc1nnc2n1CCC(N(C)C(=O)c1ccsc1)CC2` (centres undefined), for which the RP-LC retention time was 566 s. Then `CC(=O)N1CCc2cc(CNS(=O)(=O)c3ccc(Cl)cc3)ccc21`, with 811 s. With `CC(C)n1nc(CNC(=O)c2ccco2)c2ccccc21` the figure was 788 s; with `O=C(NCc1ccco1)c1nn(-c2ccc(F)cc2)c2ccccc2c1=O`, 872 s. In turn, `Cc1ccc(-n2cc3c(N4CCCC(C(=O)NCc5ccc(N(C)C)cc5)C4)ncnc3n2)cc1` (centres undefined) returned an RP-LC retention time of 600 s. Then `O=C(NCCN1CCOCC1)C1c2ccccc2CC(=O)N1Cc1ccccc1` (centres undefined), with 603 s; and `COc1cc2nc(C(=O)N3CCCCC3)cc(Nc3cccc(C(F)(F)F)c3)c2cc1OC`, with 752 s; and `Cc1ccc(NC(=O)NCC2CCOCC2)cc1Cl`, with 773 s. With `COc1ccccc1N1CCN(C(=O)c2sc3cccc(F)c3c2OC)CC1` the figure was 1050 s. Then `CCOC(=O)CCNC(=O)N1CCN(Cc2nc3cccnc3n2-c2ccccc2)CC1`, with 590 s. On to `O=C(c1ccc(Br)o1)N1CCC(c2cnn(-c3ccc(F)cc3)c2)CC1`, for which the RP-LC retention time was 984 s.

On to `O=C(Cn1cc(S(=O)(=O)Cc2cccc(Cl)c2)c2ccccc21)N1CCOCC1`, for which the RP-LC retention time stood at 774 s. Compound `CC1(C)CC[C@]2(C(=O)n3ccnc3)CC[C@]3(C)[C@H](C(=O)C=C4[C@@]5(C)C=C(C#N)C(=O)C(C)(C)[C@@H]5CC[C@]43C)[C@@H]2C1` came in with an RP-LC retention time of 1260 s.

Compound `CCOc1ccc2c(n1)CCN(C(=O)NCCOC)C2` gave an RP-LC retention time of 624 s.

With `CC1=C(c2cccc(Cl)c2)S(=O)(=O)N=C1N1CCCN(C(=O)c2ccccn2)CC1`, the RP-LC retention time worked out at 760 s. With `COc1cccc(C(O)CN2CCN(c3ccccc3OC)CC2)c1` (centres undefined) the figure was 659 s; with `Cc1cccc(-n2c(=O)c3sccc3n(Cc3nc(-c4ccc(C)c(C)c4)no3)c2=O)c1`, 1150 s.
